Reference: patent EP4600262A1, “KERATIN YK93-5, PREPARATION METHOD, AND PHARMACEUTICAL COMPOSITION AND USE THEREOF” (INSTITUTE OF MATERIA MEDICA, CHINESE ACADEMY OF MEDICAL …, priority 2022, dated 2024)
Counter-ions that a name gives are not always drawn.

What was measured:
[1] = test system: mouse prostatic hyperplasia model; experiment: mouse prostatic hyperplasia model (propionate testosterone, androgen loading); type: in vivo, Male Kunming mice; conditions: finasteride 1mg/kg, YK93-5 0.5g/kg
Protocol: • Animals: Male Kunming mice, weight: 18-20 grams • Drugs: propionate testosterone injection (Ningbo Second Hormon Factory); finasteride (Merck Sharp & Dohme, MSD), YK93-5 • Instruments: electronic balance, timer
• Normal control group; • Model group: Androgen loading Model; • Positive control group: finasteride (1mg/kg) group; • YK93-5 (0.5g/kg) group.
• Preparation of experimental animals: The experimental animals were adapted to the experimental environment (temperature 22°C±2°C, relative humidity 50%±2%) for 1 day. • Subcutaneous injection of propionate testosterone to replicate mice prostatic hyperplasia model: Mice were randomly grouped 10-12 in each group before the model being established. Propionate testosterone (0.01mg/kg) in soybean oil was injected subcutaneously, once a day for 30 consecutive days. Mice in the normal control group were injected subcutaneously with an equal volume of sodium carboxymethyl cellulose. Immediately after the model was established, finasteride 1mg/kg, or YK93-5 0.5g/kg were orally administered. Mice were weighed on the next day. After 30 days of administration, mice were weighed, executed. The prostate was excised through a median incision in the lower abdomen, the wet weight was weighed, and the prostate index was calculated by the wet weight of the prostate (mg)/body weight of the mouse (g). […] with 4% paraformaldehyde, embedded in paraffin, and cut into thin slices with the largest surface. Hematoxylin and eosin staining were used to examine the pathological changes of tissue slices.
The average value, standard deviation and standard error of the prostate index and pathological score in each group were calculated. The data from the groups were compared with each other by TTEST, and P<0.05 was considered as a significant difference.

[2] = test system: mouse pain model; experiment: mouse pain model (1% acetic acid writhing); type: in vivo, Male Kunming mice; conditions: within 15 minutes after 1% acetic acid intraperitoneally; Tramadol Hydrochloride 50mg/kg, YK93-5 2g/kg by gavage once a day for 7 days
Protocol: 30 minutes after the last administration, 1% acetic acid was administered intraperitoneally, and the writhing times of mice within 15 minutes was recorded, and the inhibition rate of drug-induced writhing reaction was calculated. The observation criteria were concave abdominal cavity, extended hind limbs, and raised buttocks.
The inhibition rate was calculated by (Mean number of writhing reactions in the normal control group - Mean number of writhing reactions in the treatment group)/Mean number of writhing reactions in the normal control group *100%. The mean value, standard deviation, and standard error of the number of writhing was recorded, and the data from the groups were compared with each other by T.TEST, and P<0.05 was considered as a significant difference.

[3] = test system: Lewis lung cancer
Protocol: • Preparation of experimental animals: The experimental animals were adapted to the experimental environment (temperature 22°C±2°C, relative humidity 50%±2%) for 1 day. • Subcutaneous inoculation of Lewis cell suspension to replicate mouse breast cancer model: The Lewis tumor tissue was ground into a suspension with a glass homogenizer, the tumor suspension was aspirated with a syringe, the number of live cells was calculated, the concentration of the cells was adjusted to 2.6*10^6/ml with physiological saline, and then the suspension was injected to the left armpit of the mouse with 0.2 ml/mouse. […] On the day of the treatment, the weight was measured, 20µl of blood was obtained from the orbital blood and the routine blood analysis was performed. The tumor blocks were stripped, weighed and photographed, and the tumor suppression rate was calculated.
The tumor suppression rate [(The average weight of the tumor in the normal control group - the average weight of the tumor in the experimental group) / The average weight of the tumor in the normal control group × 100 %] and the average value, standard deviation and standard errors of tumor weight were calculated. The data from the groups were compared with each other by T.TEST, and P<0.05 was considered as a significant difference.

[4] = test system: B16F10 melanoma; conditions: CTX 0.1 g/kg once a week, YK93-5 2 g/kg daily
Protocol: • Preparation of experimental animals: The experimental animals were adapted to the experimental environment (temperature 22°C±2°C, relative humidity 50%±2%) for 1 day. • Subcutaneous inoculation of B16F10 cell suspension to replicate a mouse melanoma model: Under sterile conditions, the tumor block was removed, ground into tumor fluid, the concentration was adjusted with physiological saline to 2.58 × 10^6 /ml, and 0.2 ml was taken to evenly inoculate subcutaneously on the armpit back of mice. On the next day, the animals were randomly grouped and administration began (recorded as Day 0). […] On the day of treatment, weight was measured, 20µL of blood was obtained by taking blood from the eye socket and the blood routine analysis was performed, the tumor block was peeled off, weighed and photographed, and the tumor suppression rate was calculated.
The tumor suppression rate [(The average weight of the tumor in the normal control group - the average weight of the tumor in the experimental group) / The average weight of the tumor in the normal control group × 100 %] and average value, standard deviation and standard errors of tumor weight were calculated. The data from the groups were compared with each other by T.TEST, and P<0.05 was considered as a significant difference.

CC(C)(C)NC(=O)[C@H]1CC[C@H]2[C@@H]3CC[C@H]4NC(=O)C=C[C@]4(C)[C@H]3CC[C@]12C [finasteride]
wet weight of the prostate ([1]; after 30 days of oral administration): 40.4 ± 9.2 mg | pathological damage of prostatic hyperplasia (histopathology, H&E) ([1]; compared with the model group, 30 days oral): the trend of hyperplasia improves, but there is no statistical difference | prostate index ([1]; wet weight of the prostate (mg)/body weight of the mouse (g), 30 days oral): 0.95±0.24

COc1cccc(C2(O)CCCCC2CN(C)C)c1 (centres unmarked) [Tramadol Hydrochloride]
Number of writhing [2]: 1.75±4.56

O=P1(N(CCCl)CCCl)NCCCO1 (centres unmarked) [Cyclophosphamide]
Change of weight (g) After administration ([3]; body weight after administration, cyclophosphamide 0.1 g/kg intraperitoneally single time, YK93-5 2 g/kg intragastric daily for 17 days): 21.07 ± 1.61 g | Change of weight (g) Before administration ([3]; body weight before administration): 20.52 ± 1.83 g | Tumor suppression (%) ([3]; cyclophosphamide 0.1 g/kg intraperitoneally single time, YK93-5 2 g/kg intragastric daily for 17 days): 91.22% | Tumor weight [4]: 0.26 ± 0.11 g
